ChEMBL document CHEMBL3991601, “The target landscape of clinical kinase drugs” (Science, 2017)
Active and inactive are the calls of the source. Rule as the data show it, for most assays here: actives have a measured Kd and inactives only a lower limit.

Experiments:
[1] = biological target: T1, Beta-adrenergic receptor kinase 1 (Homo sapiens, UniProt P25098)
T1 sequence (P25098 whole entry): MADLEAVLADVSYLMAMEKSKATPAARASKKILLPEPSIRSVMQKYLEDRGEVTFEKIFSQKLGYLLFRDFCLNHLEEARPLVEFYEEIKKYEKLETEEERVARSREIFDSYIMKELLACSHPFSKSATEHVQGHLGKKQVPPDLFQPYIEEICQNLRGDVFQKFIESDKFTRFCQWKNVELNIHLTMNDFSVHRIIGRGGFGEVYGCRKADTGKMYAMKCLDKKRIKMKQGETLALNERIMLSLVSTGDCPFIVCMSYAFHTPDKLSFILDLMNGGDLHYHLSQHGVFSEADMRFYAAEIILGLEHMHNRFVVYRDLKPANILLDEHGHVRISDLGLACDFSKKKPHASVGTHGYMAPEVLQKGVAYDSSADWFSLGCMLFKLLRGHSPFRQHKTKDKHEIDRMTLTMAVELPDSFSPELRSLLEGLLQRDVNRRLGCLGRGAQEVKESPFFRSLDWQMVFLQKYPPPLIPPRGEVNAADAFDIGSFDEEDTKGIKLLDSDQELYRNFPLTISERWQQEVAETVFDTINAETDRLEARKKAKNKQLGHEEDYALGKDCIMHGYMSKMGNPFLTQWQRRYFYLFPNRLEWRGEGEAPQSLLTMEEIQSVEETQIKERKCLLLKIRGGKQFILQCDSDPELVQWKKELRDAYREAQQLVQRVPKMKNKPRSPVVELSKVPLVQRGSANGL

[2] = biological target: T2, Calcium/calmodulin-dependent protein kinase type IV (Homo sapiens, UniProt Q16566)
T2 sequence (Q16566 whole entry): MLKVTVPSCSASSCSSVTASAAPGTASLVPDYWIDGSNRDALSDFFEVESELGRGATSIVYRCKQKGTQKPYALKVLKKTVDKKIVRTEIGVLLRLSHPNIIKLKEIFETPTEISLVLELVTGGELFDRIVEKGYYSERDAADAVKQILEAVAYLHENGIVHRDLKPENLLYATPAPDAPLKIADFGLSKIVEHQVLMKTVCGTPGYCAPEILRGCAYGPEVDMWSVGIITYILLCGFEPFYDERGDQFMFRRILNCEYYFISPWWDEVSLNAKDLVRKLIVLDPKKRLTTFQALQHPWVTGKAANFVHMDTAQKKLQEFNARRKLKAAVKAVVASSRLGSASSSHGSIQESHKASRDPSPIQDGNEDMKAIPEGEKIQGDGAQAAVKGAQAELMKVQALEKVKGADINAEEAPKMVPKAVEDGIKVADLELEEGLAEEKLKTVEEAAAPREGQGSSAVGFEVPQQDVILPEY

[3] = biological target: Cyclin-dependent kinase 13 (Homo sapiens, UniProt Q14004)
[4] = biological target: T3, Phenylalanine--tRNA ligase beta subunit (Homo sapiens, UniProt Q9NSD9)
T3 sequence (Q9NSD9 whole entry): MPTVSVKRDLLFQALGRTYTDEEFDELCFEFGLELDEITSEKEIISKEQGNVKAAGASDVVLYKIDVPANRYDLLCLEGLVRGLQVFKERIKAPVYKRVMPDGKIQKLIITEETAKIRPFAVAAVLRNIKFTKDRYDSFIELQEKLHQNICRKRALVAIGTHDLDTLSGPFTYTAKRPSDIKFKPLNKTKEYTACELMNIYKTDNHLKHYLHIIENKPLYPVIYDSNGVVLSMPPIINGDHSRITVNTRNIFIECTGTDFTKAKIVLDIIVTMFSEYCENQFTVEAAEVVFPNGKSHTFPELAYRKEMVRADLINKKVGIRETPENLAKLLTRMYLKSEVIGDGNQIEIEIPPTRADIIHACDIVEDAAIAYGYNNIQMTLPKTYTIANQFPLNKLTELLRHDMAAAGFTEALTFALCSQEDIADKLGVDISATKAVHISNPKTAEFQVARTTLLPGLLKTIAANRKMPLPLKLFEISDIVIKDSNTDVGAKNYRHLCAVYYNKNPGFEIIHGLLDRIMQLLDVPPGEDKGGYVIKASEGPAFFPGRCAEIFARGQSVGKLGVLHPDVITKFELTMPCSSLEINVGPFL

[5] = biological target: Tyrosine-protein kinase FRK (Homo sapiens, UniProt P42685)
GTP-binding protein 4 = GTP-binding protein 4 (Homo sapiens, UniProt Q9BZE4)
[6] = biological target: T4, Dual specificity mitogen-activated protein kinase kinase 5 (Homo sapiens, UniProt Q13163)
T4 sequence (Q13163 whole entry): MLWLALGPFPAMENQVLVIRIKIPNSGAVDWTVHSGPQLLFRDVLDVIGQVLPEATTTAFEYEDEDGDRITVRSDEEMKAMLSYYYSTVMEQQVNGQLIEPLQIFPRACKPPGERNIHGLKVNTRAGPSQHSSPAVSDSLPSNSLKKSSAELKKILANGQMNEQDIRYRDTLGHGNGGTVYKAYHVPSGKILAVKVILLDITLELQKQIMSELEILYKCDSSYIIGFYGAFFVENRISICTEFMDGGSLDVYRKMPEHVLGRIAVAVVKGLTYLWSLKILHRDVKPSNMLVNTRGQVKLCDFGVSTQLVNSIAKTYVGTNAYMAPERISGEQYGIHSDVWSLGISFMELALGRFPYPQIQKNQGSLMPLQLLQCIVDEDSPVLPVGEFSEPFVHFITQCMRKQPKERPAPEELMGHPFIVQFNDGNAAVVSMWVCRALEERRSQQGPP

[7] = biological target: Mitogen-activated protein kinase 1 (Homo sapiens, UniProt P28482)
[8] = biological target: T5, EKC/KEOPS complex subunit TP53RK (Homo sapiens, UniProt Q96S44)
T5 sequence (Q96S44 whole entry): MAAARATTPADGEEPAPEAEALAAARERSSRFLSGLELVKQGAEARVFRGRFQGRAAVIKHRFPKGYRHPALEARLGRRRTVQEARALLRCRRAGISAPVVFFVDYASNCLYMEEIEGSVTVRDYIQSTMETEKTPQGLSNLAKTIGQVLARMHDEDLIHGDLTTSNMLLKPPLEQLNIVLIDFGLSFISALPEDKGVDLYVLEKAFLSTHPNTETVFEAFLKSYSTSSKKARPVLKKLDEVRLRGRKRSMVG
Also: in the data inactive means no Kd found up to 30 µM.

Chain of Cyclin-dependent kinase 13 (Q14004 whole entry): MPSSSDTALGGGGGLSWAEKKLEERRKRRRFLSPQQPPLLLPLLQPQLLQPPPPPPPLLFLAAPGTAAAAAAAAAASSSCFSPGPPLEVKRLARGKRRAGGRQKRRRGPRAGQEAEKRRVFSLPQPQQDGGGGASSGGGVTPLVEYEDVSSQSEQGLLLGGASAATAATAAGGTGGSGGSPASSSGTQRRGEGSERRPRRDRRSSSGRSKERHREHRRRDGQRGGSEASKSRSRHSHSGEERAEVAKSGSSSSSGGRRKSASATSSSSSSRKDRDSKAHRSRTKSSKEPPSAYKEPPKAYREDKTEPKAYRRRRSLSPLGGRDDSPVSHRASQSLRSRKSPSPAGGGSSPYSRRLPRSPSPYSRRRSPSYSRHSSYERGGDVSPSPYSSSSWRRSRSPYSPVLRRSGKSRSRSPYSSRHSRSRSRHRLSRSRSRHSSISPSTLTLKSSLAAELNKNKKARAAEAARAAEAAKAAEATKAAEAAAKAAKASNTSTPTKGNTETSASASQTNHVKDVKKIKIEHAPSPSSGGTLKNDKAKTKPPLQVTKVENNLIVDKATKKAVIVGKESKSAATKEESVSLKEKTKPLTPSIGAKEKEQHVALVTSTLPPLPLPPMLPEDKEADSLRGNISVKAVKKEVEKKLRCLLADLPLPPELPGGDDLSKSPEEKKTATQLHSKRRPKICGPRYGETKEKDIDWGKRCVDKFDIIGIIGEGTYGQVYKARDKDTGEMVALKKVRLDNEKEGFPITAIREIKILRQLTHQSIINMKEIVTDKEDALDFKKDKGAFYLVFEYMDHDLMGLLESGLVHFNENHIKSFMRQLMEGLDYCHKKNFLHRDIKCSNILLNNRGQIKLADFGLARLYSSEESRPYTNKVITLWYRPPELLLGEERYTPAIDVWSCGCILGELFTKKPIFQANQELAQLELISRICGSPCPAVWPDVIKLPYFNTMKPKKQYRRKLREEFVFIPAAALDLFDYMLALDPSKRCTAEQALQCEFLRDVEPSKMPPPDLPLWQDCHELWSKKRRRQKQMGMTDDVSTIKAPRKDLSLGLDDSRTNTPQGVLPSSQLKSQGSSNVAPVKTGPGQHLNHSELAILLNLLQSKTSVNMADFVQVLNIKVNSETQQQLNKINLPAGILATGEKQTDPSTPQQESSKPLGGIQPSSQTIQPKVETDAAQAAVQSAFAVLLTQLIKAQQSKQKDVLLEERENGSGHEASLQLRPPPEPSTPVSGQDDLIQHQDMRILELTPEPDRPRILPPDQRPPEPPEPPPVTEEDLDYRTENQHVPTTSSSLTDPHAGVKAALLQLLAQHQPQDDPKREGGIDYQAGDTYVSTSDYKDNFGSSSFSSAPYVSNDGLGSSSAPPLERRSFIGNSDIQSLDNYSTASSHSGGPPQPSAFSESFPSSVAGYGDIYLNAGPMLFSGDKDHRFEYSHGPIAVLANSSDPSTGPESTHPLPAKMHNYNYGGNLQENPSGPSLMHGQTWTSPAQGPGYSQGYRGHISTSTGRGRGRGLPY
Chain of Tyrosine-protein kinase FRK (P42685 whole entry): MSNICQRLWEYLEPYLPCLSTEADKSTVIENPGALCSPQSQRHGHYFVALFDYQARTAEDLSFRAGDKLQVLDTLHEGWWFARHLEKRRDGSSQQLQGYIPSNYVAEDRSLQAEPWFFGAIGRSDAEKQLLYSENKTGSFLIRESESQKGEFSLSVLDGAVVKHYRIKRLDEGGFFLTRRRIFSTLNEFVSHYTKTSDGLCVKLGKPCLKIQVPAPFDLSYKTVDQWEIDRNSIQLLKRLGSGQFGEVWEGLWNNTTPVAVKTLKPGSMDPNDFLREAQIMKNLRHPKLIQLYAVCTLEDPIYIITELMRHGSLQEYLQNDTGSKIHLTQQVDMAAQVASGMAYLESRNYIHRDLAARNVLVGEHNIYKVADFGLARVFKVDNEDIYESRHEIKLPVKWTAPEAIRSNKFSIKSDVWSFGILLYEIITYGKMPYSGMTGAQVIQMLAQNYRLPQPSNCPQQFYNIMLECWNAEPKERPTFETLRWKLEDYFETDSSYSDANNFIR
Chain of Mitogen-activated protein kinase 1 (P28482 whole entry): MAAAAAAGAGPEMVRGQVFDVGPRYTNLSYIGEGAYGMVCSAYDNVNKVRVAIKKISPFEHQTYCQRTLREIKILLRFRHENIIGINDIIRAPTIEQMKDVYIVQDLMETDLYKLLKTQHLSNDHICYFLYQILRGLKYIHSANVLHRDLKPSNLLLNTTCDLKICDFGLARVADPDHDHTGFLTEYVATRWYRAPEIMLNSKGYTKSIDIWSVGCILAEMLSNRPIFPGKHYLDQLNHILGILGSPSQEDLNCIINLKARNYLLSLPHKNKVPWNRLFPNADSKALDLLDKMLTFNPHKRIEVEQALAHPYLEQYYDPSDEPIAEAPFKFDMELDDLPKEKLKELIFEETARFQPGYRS

## CNC(=O)c1cc(Oc2ccc(NC(=O)Nc3ccc(Cl)c(C(F)(F)F)c3)c(F)c2)ccn1 [REGORAFENIB]
[1]
  Kd: > 30 µM (inactive)
[2]
  Kd: > 30 µM (inactive)
[3]
  Kd: > 30 µM (inactive)
[4]
  Kd: > 30 µM (inactive)
[5]
  Kd: > 30 µM (inactive)
GTP-binding protein 4
  Kd: > 30 µM (inactive)
[6]
  Kd: > 30 µM (inactive)
[7]
  Kd: > 30 µM (inactive)
[8]
  Kd: > 30 µM (inactive)

## COCCNCc1ccc(-c2cc3nccc(Oc4ccc(NC(=S)NC(=O)Cc5ccc(F)cc5)cc4F)c3s2)nc1 [GLESATINIB]
[1]
  Kd: > 30 µM (inactive)
[2]
  Kd: > 30 µM (inactive)
[3]
  Kd: > 30 µM (inactive)
[4]
  Kd: > 30 µM (inactive)
[5]
  Kd: 1.1 µM (active)
GTP-binding protein 4
  Kd: > 30 µM (inactive)
[6]
  Kd: > 30 µM (inactive)
[7]
  Kd: > 30 µM (inactive)
[8]
  Kd: > 30 µM (inactive)

## CCN1CCN(Cc2ccc(-c3cc4c(N[C@H](C)c5ccccc5)ncnc4[nH]3)cc2)CC1 [AEE-788]
[1]
  Kd: > 30 µM (inactive)
[2]
  Kd: > 30 µM (inactive)
[3]
  Kd: > 30 µM (inactive)
[4]
  Kd: > 30 µM (inactive)
[5]
  Kd: > 30 µM (inactive)
GTP-binding protein 4
  Kd: > 30 µM (inactive)
[6]
  Kd: 9.43 µM (active)
[7]
  Kd: > 30 µM (inactive)
[8]
  Kd: > 30 µM (inactive)

## CN1CC[C@@H](c2c(O)cc(O)c3c(=O)cc(-c4ccccc4Cl)oc23)[C@@H]1CO
[1]
  Kd: > 30 µM (inactive)
[2]
  Kd: > 30 µM (inactive)
[3]
  Kd: > 30 µM (inactive)
[4]
  Kd: > 30 µM (inactive)
[5]
  Kd: > 30 µM (inactive)
GTP-binding protein 4
  Kd: > 30 µM (inactive)
[6]
  Kd: > 30 µM (inactive)
[7]
  Kd: > 30 µM (inactive)
[8]
  Kd: > 30 µM (inactive)

## COc1cc(OC)c(/C=C/S(=O)(=O)Cc2ccc(OC)c(NCC(=O)O)c2)c(OC)c1 [RIGOSERTIB]
[1]
  Kd: > 30 µM (inactive)
[2]
  Kd: > 30 µM (inactive)
[3]
  Kd: > 30 µM (inactive)
[4]
  Kd: > 30 µM (inactive)
[5]
  Kd: > 30 µM (inactive)
GTP-binding protein 4
  Kd: > 30 µM (inactive)
[6]
  Kd: > 30 µM (inactive)
[7]
  Kd: > 30 µM (inactive)
[8]
  Kd: > 30 µM (inactive)

## C1=C/COCc2cc(ccc2OCCN2CCCC2)Nc2nccc(n2)-c2cccc(c2)COC/1 [PACRITINIB]
[1]
  Kd: > 30 µM (inactive)
[2]
  Kd: > 30 µM (inactive)
[3]
  Kd: > 30 µM (inactive)
[4]
  Kd: > 30 µM (inactive)
[5]
  Kd: > 30 µM (inactive)
GTP-binding protein 4
  Kd: > 30 µM (inactive)
[6]
  Kd: > 30 µM (inactive)
[7]
  Kd: > 30 µM (inactive)
[8]
  Kd: > 30 µM (inactive)

## CNC(=O)c1ccc(-c2cnc3ncc(Cc4ccc5ncccc5c4)n3n2)cc1F [CAPMATINIB]
[1]
  Kd: > 30 µM (inactive)
[2]
  Kd: > 30 µM (inactive)
[3]
  Kd: > 30 µM (inactive)
[4]
  Kd: > 30 µM (inactive)
[5]
  Kd: > 30 µM (inactive)
GTP-binding protein 4
  Kd: > 30 µM (inactive)
[6]
  Kd: > 30 µM (inactive)
[7]
  Kd: > 30 µM (inactive)
[8]
  Kd: > 30 µM (inactive)

## CC[C@@H]1C(=O)N(C)c2cnc(Nc3ccc(C(=O)N[C@H]4CC[C@H](N5CCN(CC6CC6)CC5)CC4)cc3OC)nc2N1C(C)C [VOLASERTIB]
[1]
  Kd: > 30 µM (inactive)
[2]
  Kd: > 30 µM (inactive)
[3]
  Kd: > 30 µM (inactive)
[4]
  Kd: > 30 µM (inactive)
[5]
  Kd: > 30 µM (inactive)
GTP-binding protein 4
  Kd: > 30 µM (inactive)
[6]
  Kd: > 30 µM (inactive)
[7]
  Kd: > 30 µM (inactive)
[8]
  Kd: > 30 µM (inactive)

## CN1CCC(COc2cnc(-c3cccc(Cn4nc(-c5cccc(C#N)c5)ccc4=O)c3)nc2)CC1 [TEPOTINIB]
[1]
  Kd: > 30 µM (inactive)
[2]
  Kd: > 30 µM (inactive)
[3]
  Kd: > 30 µM (inactive)
[4]
  Kd: > 30 µM (inactive)
[5]
  Kd: > 30 µM (inactive)
GTP-binding protein 4
  Kd: > 30 µM (inactive)
[6]
  Kd: > 30 µM (inactive)
[7]
  Kd: > 30 µM (inactive)
[8]
  Kd: > 30 µM (inactive)

## Cc1cc2c(F)c(Oc3ncnn4cc(OC[C@@H](C)OC(=O)[C@H](C)N)c(C)c34)ccc2[nH]1 [BRIVANIB ALANINATE]
[1]
  Kd: > 30 µM (inactive)
[2]
  Kd: > 30 µM (inactive)
[3]
  Kd: > 30 µM (inactive)
[4]
  Kd: > 30 µM (inactive)
[5]
  Kd: > 30 µM (inactive)
GTP-binding protein 4
  Kd: > 30 µM (inactive)
[6]
  Kd: > 30 µM (inactive)
[7]
  Kd: > 30 µM (inactive)
[8]
  Kd: > 30 µM (inactive)

## CN1N=C(N)c2cn([C@@H]3O[C@H](COP(=O)(O)O)[C@@H](O)[C@H]3O)c3ncnc1c23 [TRICIRIBINE PHOSPHATE]
[1]
  Kd: > 30 µM (inactive)
[2]
  Kd: > 30 µM (inactive)
[3]
  Kd: > 30 µM (inactive)
[4]
  Kd: > 30 µM (inactive)
[5]
  Kd: > 30 µM (inactive)
GTP-binding protein 4
  Kd: > 30 µM (inactive)
[6]
  Kd: > 30 µM (inactive)
[7]
  Kd: > 30 µM (inactive)
[8]
  Kd: > 30 µM (inactive)

## Cc1cc([C@@H](C)Nc2ccccc2C(=O)O)c2nc(N3CCOCC3)cc(=O)n2c1 [AZD-6482]
[1]
  Kd: > 30 µM (inactive)
[2]
  Kd: > 30 µM (inactive)
[3]
  Kd: > 30 µM (inactive)
[4]
  Kd: > 30 µM (inactive)
[5]
  Kd: > 30 µM (inactive)
GTP-binding protein 4
  Kd: > 30 µM (inactive)
[6]
  Kd: > 30 µM (inactive)
[7]
  Kd: > 30 µM (inactive)
[8]
  Kd: > 30 µM (inactive)

## COC(=O)[C@@]1(O)C[C@H]2O[C@]1(C)n1c3ccccc3c3c4c(c5c6ccccc6n2c5c31)C(=O)NC4 [K-252A]
[1]
  Kd: > 30 µM (inactive)
[2]
  Kd: > 30 µM (inactive)
[3]
  Kd: > 30 µM (inactive)
[4]
  Kd: > 30 µM (inactive)
[5]
  Kd: > 30 µM (inactive)
GTP-binding protein 4
  Kd: > 30 µM (inactive)
[6]
  Kd: 2.03 µM (active)
[7]
  Kd: > 30 µM (inactive)
[8]
  Kd: 3.84 µM (active)

## CCS(=O)(=O)N1CC(CC#N)(n2cc(-c3ncnc4[nH]ccc34)cn2)C1 [BARICITINIB]
[1]
  Kd: > 30 µM (inactive)
[2]
  Kd: > 30 µM (inactive)
[3]
  Kd: > 30 µM (inactive)
[4]
  Kd: > 30 µM (inactive)
[5]
  Kd: > 30 µM (inactive)
GTP-binding protein 4
  Kd: > 30 µM (inactive)
[6]
  Kd: > 30 µM (inactive)
[7]
  Kd: > 30 µM (inactive)
[8]
  Kd: > 30 µM (inactive)

## Cc1cc(-c2cc(O)ccc2Cl)cc2nnc(Nc3ccc(OCCN4CCCC4)cc3)nc12
[1]
  Kd: > 30 µM (inactive)
[2]
  Kd: > 30 µM (inactive)
[3]
  Kd: > 30 µM (inactive)
[4]
  Kd: > 30 µM (inactive)
[5]
  Kd: 0.001 µM (active)
GTP-binding protein 4
  Kd: > 30 µM (inactive)
[6]
  Kd: > 30 µM (inactive)
[7]
  Kd: > 30 µM (inactive)
[8]
  Kd: > 30 µM (inactive)
